Earlier results as cited in patent US20090117053A1, “LOCAL DELIVERY OF 5-AMINOLEVULINIC-ACID BASED COMPOUNDS TO TISSUES AND ORGANS FOR DIAGNOSTIC AND THERAPEUTIC PURPOSES” (Boston Scientific Scimed, Inc., priority 2007, published 2009).

What was measured:
[1] = comparison between ALA-based compounds
[2] = compared with ALA hydrochloride and various other ALA ester hydrochlorides
protoporphyrin IX (PPIX) = settings: compared with ALA hydrochloride and various other ALA ester hydrochlorides

Row | Compound | hydrophilicity (relative ranking) [1] | phototoxicity [2] | PPIX levels (protoporphyrin IX (PPIX))
1 | CCOC(=O)CCC(=O)CN.Cl [ALA ethyl ester hydrochloride] | more hydrophilic than ALA n-propyl ester hydrochloride |  | 
2 | Cl.NCC(=O)CCC(=O)O [ALA hydrochloride, 5-aminolevulinic acid hydrochloride] | more hydrophilic than ALA methyl ester hydrochloride |  | 
3 | COC(=O)CCC(=O)CN.Cl [ALA methyl ester hydrochloride] | more hydrophilic than ALA ethyl ester hydrochloride |  | 
4 | ALA dibenzyldiester dihydrochloride |  | improved phototoxicity | appreciably increased PPIX levels
5 | CCCCCCSC(=O)CCC(=O)CN.Cl [ALA thiohexylester hydrochloride, ALA thiohexyl ester hydrochloride] |  | improved phototoxicity | appreciably increased PPIX levels
6 | Cl.NCC(=O)CCC(=O)OCCC(F)(F)C(F)(F)C(F)(F)C(F)(F)F [ALA nonafluorohexylester hydrochloride] |  | improved phototoxicity | appreciably increased PPIX levels
